Assay results as given in patent US11534457B2, “Use of dextran sulfate” (priority 2017, dated 2022).

Test system: Mouse cortical neurons (Lonza)
Test: Gene expression array and pathway analysis, cortical neurons
Assay type: cell-based
Settings: 0.01 mg/ml, 48 h
Experimental: For each cell line, n=8×25 cm^2 culture flasks were set up. Two flasks were harvested for each cell type on the day of treatment (24 hours after seeding). This represents the Day0 time point. From the remaining flasks, three flasks were treated with Control Medium and three were treated with Culture Medium (CM) containing LMW-DS to give a final concentration of 0.01 mg/ml. Cells from the treated flasks were collected after 48 hours. Therefore the collected data represent (a) untreated cells (Day0 Controls and Day2 Controls) and (b) cells treated with LMW-DS for 48 hours (Day2 LMW-DS treated).
25 cm^2 flasks were coated by adding 2 ml per flask of a solution of 50 μg/ml poly-d-lysine in Hank's balanced salt solution (HBSS) and incubating overnight at 37° C. in the dark. Flasks were washed with cell culture water and air-dried for 30 min in the dark. Flasks were coated by adding 1 ml per flask of a solution of 25 μg/ml laminin in phosphate-buffered saline (PBS) and incubating for 2 hour at 37° C. in the dark. The laminin flasks were washed with PBS three times before plating cells.
Medium was prepared by adding 10 ml B-27 Serum-Free Supplement and 2.5 ml GlutaMAX™-1 Supplement to 500 ml of Neurobasal medium. The medium was pre-warmed to 37° C. Cells from 12 vials were thawed sequentially in a 37° C. water bath for no longer than 2 min and gently transferred into a 15 ml tube. 9 ml of medium was gently added drop-wise to each. The cell suspension was mixed by inverting the tubes carefully twice.
The cells were centrifuged for 5 minutes at 200×g. Supernatant was removed (to the last 0.5 ml) and cells were gently resuspended by trituration. The cells from the 12 vials were mixed and distributed equally into the previously coated 25 cm^2 flasks (n=8). Cells were incubated at 37° C. with 5% CO2 for 24 hours.
LMW-DS was provided at a stock concentration of 20 mg/ml and was kept in a temperature monitored refrigerator at 4° C. A fresh […]LMW-DS stock (1.0 mg/ml) was prepared in sterile DMEM-F12. The concentrated drug stock was sterile filtered and added to the respective culture media (19.6 ml CM and 0.4 ml LMW-DS stock solution). The Control was made using 19.6 ml CM and 0.4 ml of DMEM-F12. LMW-DS and CM were added to the respective flasks (5 ml each) to reach the 0.01 mg/ml concentration of LMW-DS in each dish with a total of 10 ml CM each.
CM was aspirated into a clean and labelled 15 ml Falcon tube. The flasks (without culture medium) were placed into the −80° C. freezer for 30 minutes. The CM in the Falcon tubes were spun at 3000×g for 5 minutes. Supernatant was removed and the small pellet was re-suspended in 2.5 ml Trizol:Water (4:1) solution at room temperature (RT, […]).
Two aliquots of 1 ml lysate was removed from each sample and 200 μl of chloroform was added to each (0.2 ml of chloroform per 1 ml of TRIzol Reagent used during the cell lysis step) and the tube was shaken vigorously. Samples were stored at RT for 2-3 minutes and subsequently centrifuged at 12,000×g for 15 minutes at 4° C.
The expression data were downloaded into separate files for each cell line. The ‘Background corrected’ expression is the data from the “gProcessedSignal” of the arrays that is the result of the background signal extracted from the actual signal of the relevant probe. This is the most often used variable in array analysis. The background corrected signal was log 2 transformed for all samples for statistical analysis. To reduce the false discovery rate in the samples, the signals that were below ‘expression level’ were removed. The ‘below expression’ level was set at 5 for the log 2 transformed expression values.
Based on the expression pattern of the Control probes on each array it was decided to carry out Median Centering for all arrays before analysis to reduce the variability of the results. […]

## low molecular weight dextran sulfate [LMW-DS]
  MMP-related genes differentially expressed: none
  cellular attachment from expression patterns (neurons): significant inhibition of cellular attachment
  downstream effector molecules of GDF7: activated
  glutamate production: dis not alter
  number of genes differentially expressed, D0 control to the D2 LMW-DS treated samples (second statement): 247 genes
  number of genes differentially expressed, D0 control vs D2 LMW-DS treated: 609 genes
  number of genes: abolished nutrient effect / no effect: 572
  number of genes: abolished nutrient effect / significant downregulation: 7
  number of genes: abolished nutrient effect / significant upregulation: 33
  number of genes: abolished nutrient effect / total: 612
  number of genes: enhanced response to nutrients / significant downregulation: 158
  number of genes: enhanced response to nutrients / significant upregulation: 43
  number of genes: enhanced response to nutrients / total: 612
  number of genes: new effect induced by LMW-DS / no effect: 19
  number of genes: new effect induced by LMW-DS / significant downregulation: 22
  number of genes: new effect induced by LMW-DS / significant upregulation: 7
  number of genes: new effect induced by LMW-DS / total: 48
  number of genes: not different from control / significant downregulation: 95
  number of genes: not different from control / significant upregulation: 221
  number of genes: not different from control / total: 316
  number of genes: total / no effect: 591
  number of genes: total / significant downregulation: 282
  number of genes: total / significant upregulation: 304
  number of genes: total / total: 1177
  oxidative-stress effects: amyloid-β and Lewy body pathology, mitochondrial dysfunction: able to prevent and reverse most of these deleterious effects
